Assay results taken from the Kinase Knowledgebase extract (Sharma et al. 2016).

Target: MAPK14 (human) (UniProt Q16539)
Test: Assessment of MAPK14 Kinase Activity
Settings: not given

Sequence of MAPK14 (human) (Q16539 whole entry, looked up): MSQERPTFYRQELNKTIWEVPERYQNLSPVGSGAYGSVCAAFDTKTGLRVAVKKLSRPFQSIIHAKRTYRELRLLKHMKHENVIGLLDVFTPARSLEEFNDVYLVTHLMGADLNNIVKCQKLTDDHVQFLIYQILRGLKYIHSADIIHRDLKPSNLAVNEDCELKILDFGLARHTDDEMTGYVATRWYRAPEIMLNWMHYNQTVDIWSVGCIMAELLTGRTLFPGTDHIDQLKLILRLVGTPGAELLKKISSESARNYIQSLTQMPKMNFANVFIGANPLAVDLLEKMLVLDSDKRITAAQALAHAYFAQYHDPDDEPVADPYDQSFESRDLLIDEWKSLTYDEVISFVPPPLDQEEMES

Row | IC50 | SMILES
1 | < 0.05 µM | CS(=O)(=O)N1CCC(Nc2ncc3cc(Oc4ccc(F)cc4F)ncc3n2)CC1
2 | 0.005 to 0.5 µM | Cc1cccc(Nc2c(C(=O)N3CCNCC3)sc3c2ccc(=O)n3-c2c(F)cccc2F)n1
3 | 0.13 µM | CC1CCN(c2[nH]nc(-c3ccc(Cl)cc3)c2-c2ccncc2)CC1
4 | 2.95 µM | Fc1cc(-c2[nH]c(SCc3ccccc3)nc2-c2cccc(C(F)(F)F)c2)ccn1
5 | 0.081 µM | Cc1ncccc1-c1nnc2c(F)c(-c3cc(C(=O)NC4CC4)cc(F)c3C)c(F)cn12
6 | < 0.05 µM | CONC(=O)c1ccc(C)c(Nc2nnc(-c3ccccc3)[nH]2)c1
7 | 0.05 µM | CSc1nc(-c2ccc(F)cc2)c(-c2ccnc(NC3CCCc4ccccc43)c2)[nH]1 (stereo unspecified)
8 | 0.002 µM | CC[C@@H](NC(=O)c1cn2ncnc(Nc3cc(NC(=O)c4cc(F)cc(N5CCOCC5)c4)ccc3C)c2c1C)OC
9 | 0.21 µM | CSc1nc(-c2ccc(F)cc2)c(-c2ccnc(N(C)C)c2)[nH]1
10 | 0.19 µM | OC1CCCN(c2[nH]nc(-c3ccc(Cl)cc3)c2-c2ccncc2)C1 (stereo unspecified)
11 | 0.127 µM | CN(C)C(=O)[C@@H]1CCCN1c1nccc(Oc2ccc(NC(=O)c3cc(F)cc(N4CCCCC4)c3)c3ccccc23)n1
12 | 0.00012 µM | CC(C)(N)C(=O)OCCOc1cc(-c2ccccc2Cl)c2ccc(=O)n(-c3c(Cl)cccc3Cl)c2c1
13 | < 10 µM | CC(C)Nc1ncc2c(n1)N(CC(=O)O)C(=O)N(c1ccccc1Cl)C2
14 | 0.05 µM | CN1CCN(c2[nH]nc(-c3ccc(Cl)cc3)c2-c2ccncc2)CC1
15 | > 100 µM | Cc1nn(-c2ccccc2)c(O)c1C(=O)c1ccccc1
16 | < 5 µM | Cc1c(NC(=O)Nc2cc(C(C)(C)C)nn2-c2ccc(F)cc2)sc(CN2CCOCC2)c1Cl
17 | 0.13 µM | CC1CC(C)CN(c2[nH]nc(-c3ccc(Cl)cc3)c2-c2ccncc2)C1 (stereo unspecified)
18 | 0.87 µM | CSc1nc(-c2ccc(F)cc2)c(-c2ccnc(N(C)Cc3ccccc3)c2)[nH]1
19 | > 0.1 µM | Cc1ccc(C(=O)NC2CC2)cc1Nc1nc(-c2ccccc2)cs1
20 | 0.26 µM | Clc1ccc(-c2n[nH]c(N3CCC4CCCCC4C3)c2-c2ccncc2)cc1 (stereo unspecified)
21 | 0.005 to 0.5 µM | Cc1cccc(Nc2c(C(=O)N3CCC[C@H]3CO)sc3c2ccc(=O)n3-c2c(F)cccc2F)n1
22 | < 0.5 µM | CC(C)Nc1ncc2cc(Oc3ccc(F)cc3F)ncc2n1
23 | < 5 µM | Cc1c(NC(=O)c2cc(F)cc(N3CCOCC3)c2)sc(CN2CCOCC2)c1Cl
24 | > 0.1 µM | Cc1ccc(C(=O)NC2CC2)cc1Nc1nc(-c2ccc3[nH]ccc3c2)c(C(=O)NCc2ccccc2)s1
25 | 0.11 µM | OC1CCN(c2[nH]nc(-c3ccc(Cl)cc3)c2-c2ccncc2)CC1
26 | 1 µM | O=C(Nc1ccc(OCCN2CCOCC2)c2ccccc12)c1cccc(-c2cccc(F)c2)c1

Same assay, conditions: concentration not given here

Row | inhibition | SMILES
27 | -8% | O=S(=O)(c1cccc2cnccc12)N1CCCNCC1
28 | -3% | CC1=C(C(=O)Nc2cc3cn[nH]c3cc2F)C(c2ccc(C(F)(F)F)cc2)CC(=O)N1 (stereo unspecified)

Target: PIK3CA (human) (UniProt P42336)
Test: Inhibition of PIK3CA Kinase Activity
Settings: not given

Sequence of PIK3CA (human) (P42336 whole entry, looked up): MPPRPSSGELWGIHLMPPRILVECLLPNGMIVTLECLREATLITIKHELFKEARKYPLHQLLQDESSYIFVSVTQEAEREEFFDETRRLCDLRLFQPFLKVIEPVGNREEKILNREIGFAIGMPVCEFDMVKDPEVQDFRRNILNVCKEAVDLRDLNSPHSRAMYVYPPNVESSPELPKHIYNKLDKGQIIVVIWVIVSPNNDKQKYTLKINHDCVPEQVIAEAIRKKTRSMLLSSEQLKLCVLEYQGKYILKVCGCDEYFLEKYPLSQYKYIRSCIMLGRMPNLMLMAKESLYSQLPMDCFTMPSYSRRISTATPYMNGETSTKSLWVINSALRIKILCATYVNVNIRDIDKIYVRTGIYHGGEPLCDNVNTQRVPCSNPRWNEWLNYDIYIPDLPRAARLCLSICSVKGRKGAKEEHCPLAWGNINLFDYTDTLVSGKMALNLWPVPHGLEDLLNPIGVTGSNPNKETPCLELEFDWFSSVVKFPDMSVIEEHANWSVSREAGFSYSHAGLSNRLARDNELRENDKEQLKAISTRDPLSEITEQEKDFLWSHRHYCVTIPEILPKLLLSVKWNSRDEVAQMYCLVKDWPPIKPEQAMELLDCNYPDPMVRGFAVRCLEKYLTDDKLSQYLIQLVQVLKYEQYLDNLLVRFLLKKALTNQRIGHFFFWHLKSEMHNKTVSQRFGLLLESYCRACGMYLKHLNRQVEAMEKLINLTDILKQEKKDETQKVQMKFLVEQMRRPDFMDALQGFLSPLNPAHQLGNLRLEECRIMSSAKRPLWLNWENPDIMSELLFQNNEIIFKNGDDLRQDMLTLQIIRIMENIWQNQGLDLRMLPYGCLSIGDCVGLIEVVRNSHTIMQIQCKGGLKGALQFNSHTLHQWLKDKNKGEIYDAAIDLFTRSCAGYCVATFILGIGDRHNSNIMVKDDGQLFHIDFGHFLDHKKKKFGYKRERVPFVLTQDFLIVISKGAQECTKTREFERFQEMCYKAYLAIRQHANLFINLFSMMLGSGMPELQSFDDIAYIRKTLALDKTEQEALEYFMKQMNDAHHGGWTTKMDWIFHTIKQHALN

Row | IC50 | SMILES
29 | 0.1 to 1 µM | COc1ncc2cc1NS(=O)(=O)c1cccc(c1)C(=O)NCc1cncc(c1)-c1ccnc3[nH]c-2cc13
30 | 0.04 µM | c1cc(-c2nc(N3CCOCC3)c3sccc3n2)c2cn[nH]c2c1
31 | 0.73 µM | CC(=O)c1c[nH]c2ncc(-c3cnc(N)c(S(=O)(=O)N4CCOCC4)c3)cc12
32 | 0.0101 µM | COC[C@H]1OC(=O)c2coc3c2[C@@]1(C)C1=C(C3=O)[C@@H]2CCC(=O)[C@@]2(C)C[C@H]1C(=O)OCc1cc(=O)oc2cc(N(C)C)ccc12
33 | 0.003 µM | COc1ccc(-c2c[nH]c3ncc(-c4cncc(NS(=O)(=O)c5ccc(F)cc5F)c4)cc23)cc1OC
34 | 8.31 µM | CN1CCC(Nc2cccc(-c3cccc(Oc4cc(=O)[nH]c5ccccc45)c3)c2)CC1
35 | 0.044 µM | O=C1NCc2cncc(c2)-c2ncnc3c2SC(=C3)c2cncc(c2)NS(=O)(=O)c2cccc1c2
36 | 0.227 µM | CNC(=O)Nc1ccc(-c2nc(N3CC4CCC(C3)O4)c3cnn([C@H]4CC[C@@H](O)CC4)c3n2)cc1

Row | SMILES | IC50
37 | COc1ccc2c(c1)c(C=C1Oc3cc(O)cc(O)c3C1=O)c(C)n2CCCN(C)C | 0.005 µM
38 | O=C1C(=Cc2c[nH]c3ccc(Br)cc23)Oc2cc(O)cc(O)c21 | 0.422 µM

Target: CDK2 (human) (UniProt P24941)
Test: Enzyme Assay
Settings: concentration not given here

Row | inhibition | SMILES
39 | 18% | O=S(=O)(c1cccc2cnccc12)N1CCCNCC1

Target: MAPK14 (human) (UniProt Q16539)
Test: Inhibition of MAPK14 Kinase Activity
Settings: not given

Row | IC50 | SMILES
40 | < 0.05 µM | CS(=O)(=O)N1CCC(Nc2ncc3cc(Oc4ccc(F)cc4F)ncc3n2)CC1
41 | < 0.5 µM | CC(C)Nc1ncc2cc(Oc3ccc(F)cc3F)ncc2n1
